Reference: US4678781A, “3-substituted-aminomethyl cephalosporin derivatives” (ICI Pharma, priority 1983, dated 1987)
≈ marks a conversion by molar mass, not a printed value.

Assays:
[1] = Toxicity observation in mice after subcutaneous administration; assay type: in vivo; settings: two single doses over one day, each at least five times the PD50 against Salmonella dublin
Protocol: A number of compounds were administered to mice at doses in excess of those required to afford protection against bacterial infections. Thus for example the compounds of Examples 23, 70 and 74 were administered subcutaneously to mice in two single doses over one day, each dose being at least five times the minimum effective dose which protected 50% of the mice against infection with Salmonella dublin (PD50).

[2] = test system: Strep. pyogenes; assay: MIC, agar-dilution technique, standard in vitro test; assay type: cell-based; settings: Streptococcus pyogenes; strain code A8681018; Isosensitest agar; inoculum 10^4 CFU./spot; read-out: minimum inhibitory concentration (MIC)
Source text: (§1) The results set out in the following Table are illustrative of the biological activity of the compounds of the present invention. The listed compounds all carry a 1-methyl-4-pyridinioaminomethyl radical at the 3-position of the cephalosporin nucleus and a variety of known substituents at the 7-position. The following results are those obtained on a standard in vitro test system and using Isosensitest agar medium. The antibacterial activity is described in terms of the minimum inhibitory concentration (MIC) determined by agar-dilution technique with an inoculum size of 10^4 CFU./spot.

[3] = test system: E. coli; assay: as above; assay type: cell-based; settings: Escherichia coli; strain code A8341098; Isosensitest agar; inoculum 10^4 CFU./spot; read-out: minimum inhibitory concentration (MIC)
Source text: as §1

[4] = test system: Sal. dublin; assay: as above; assay type: cell-based; settings: Salmonella enterica; strain code A8369001; Isosensitest agar; inoculum 10^4 CFU./spot; read-out: minimum inhibitory concentration (MIC)
Source text: as §1

[5] = test system: P. aeruginosa; assay: as above; assay type: cell-based; settings: Pseudomonas aeruginosa; strain code A8101028; Isosensitest agar; inoculum 10^4 CFU./spot; read-out: minimum inhibitory concentration (MIC)
Source text: as §1

[6] = test system: Serr. marcescens; assay: as above; assay type: cell-based; settings: Serratia marcescens; strain code A8421020; Isosensitest agar; inoculum 10^4 CFU./spot; read-out: minimum inhibitory concentration (MIC)
Source text: as §1

[7] = test system: Ent. cloacae; assay: as above; assay type: cell-based; settings: Enterobacter cloacae; strain code A8401054; Isosensitest agar; inoculum 10^4 CFU./spot; read-out: minimum inhibitory concentration (MIC)
Source text: as §1

[8] = test system: Prot. mirabilis; assay: as above; assay type: cell-based; settings: Proteus mirabilis; strain code A8432057; Isosensitest agar; inoculum 10^4 CFU./spot; read-out: minimum inhibitory concentration (MIC)
Source text: as §1

[9] = test system: Staph. aureus; assay: as above; assay type: cell-based; settings: Staphylococcus aureus; strain code A8601052; Isosensitest agar; inoculum 10^4 CFU./spot; read-out: minimum inhibitory concentration (MIC)
Source text: as §1

[10] = test system: Kleb. aerogenes; assay: as above; assay type: cell-based; settings: Klebsiella aerogenes; strain code A8391027; Isosensitest agar; inoculum 10^4 CFU./spot; read-out: minimum inhibitory concentration (MIC)
Source text: as §1

Row | SMILES | overt toxic symptoms or side effects [1] | MIC [2] [µg/mL] | MIC [3] [µg/mL] | MIC [4] [µg/mL] | MIC [5] [µg/mL] | MIC [6] [µg/mL] | MIC [7] [µg/mL] | MIC [8] [µg/mL] | MIC [9] [µg/mL] | MIC [10] [µg/mL]
1 | C[n+]1ccc(NCC2=C(C(=O)[O-])N3C(=O)[C@@H](NC(=O)/C(=N\OC4(C(=O)O)CCC4)c4csc(N)n4)[C@H]3SC2)cc1 [Example 74] | No overt toxic symptoms or side effects attributable to the administered compounds were noted | 0.25 (≈ 0.425 µM) | 0.25 (≈ 0.425 µM) | 0.13 (≈ 0.221 µM) | 4 (≈ 6.81 µM) | 1 (≈ 1.7 µM) | 1 (≈ 1.7 µM) | 0.13 (≈ 0.221 µM) | 8 (≈ 13.6 µM) | 0.5 (≈ 0.851 µM)
2 | C[n+]1ccc(NCC2=C(C(=O)[O-])N3C(=O)[C@@H](NC(=O)/C(=N\OCC#N)c4csc(N)n4)[C@H]3SC2)cc1 [Example 96] |  |  | 0.032 (≈ 0.0605 µM) | 0.064 (≈ 0.121 µM) | 32 (≈ 60.5 µM) | 0.032 (≈ 0.0605 µM) | 0.25 (≈ 0.473 µM) | 0.064 (≈ 0.121 µM) | 0.5 (≈ 0.946 µM) | < 0.016
3 | CO/N=C(\C(=O)N[C@@H]1C(=O)N2C(C(=O)O)=C(CNc3cc[n+](C)cc3)CS[C@H]12)c1csc(N)n1 [Example 9] |  | 0.016 | 0.032 | 0.25 | 16 | 0.13 | 0.064 | 0.064 | 1 | 0.032
4 | CCN1CCN(C(=O)N[C@@H](C(=O)N[C@@H]2C(=O)N3C(C(=O)[O-])=C(CNc4cc[n+](C)cc4)CS[C@H]23)c2ccc(O)cc2)C(=O)C1=O [Example 81] |  | 0.13 (≈ 0.204 µM) | 2 (≈ 3.14 µM) | 8 (≈ 12.5 µM) | > 128 | 8 (≈ 12.5 µM) | 4 (≈ 6.27 µM) | 32 (≈ 50.2 µM) | 1 (≈ 1.57 µM) | 2 (≈ 3.14 µM)
5 | C=CCO/N=C(\C(=O)N[C@@H]1C(=O)N2C(C(=O)[O-])=C(CNc3cc[n+](C)cc3)CS[C@H]12)c1csc(N)n1 [Example 70] | No overt toxic symptoms or side effects attributable to the administered compounds were noted | < 0.016 | 0.25 (≈ 0.472 µM) | 0.5 (≈ 0.944 µM) | 32 (≈ 60.4 µM) | 0.5 (≈ 0.944 µM) | 1 (≈ 1.89 µM) | 0.5 (≈ 0.944 µM) | 1 (≈ 1.89 µM) | 0.13 (≈ 0.245 µM)
6 | C[n+]1ccc(NCC2=C(C(=O)[O-])N3C(=O)[C@@H](NC(=O)[C@H](NC(=O)c4n[nH]c(=O)nc4O)c4ccc(O)cc4)[C@H]3SC2)cc1 [Example 82] |  | 0.5 (≈ 0.822 µM) | 128 (≈ 210 µM) | 64 (≈ 105 µM) | > 12 | > 128 | > 128 | 32 (≈ 52.6 µM) | 2 (≈ 3.29 µM) | 64 (≈ 105 µM)
7 | C[n+]1ccc(NCC2=C(C(=O)[O-])N3C(=O)[C@@H](NC(=O)/C(=N\OC(C)(C)C(=O)O)c4csc(N)n4)[C@H]3SC2)cc1 [Example 23] | No overt toxic symptoms or side effects attributable to the administered compounds were noted | 0.13 (≈ 0.226 µM) | 0.13 (≈ 0.226 µM) | 0.25 (≈ 0.434 µM) | 2 (≈ 3.47 µM) | 0.25 (≈ 0.434 µM) | 0.5 (≈ 0.869 µM) | 0.064 (≈ 0.111 µM) | 8 (≈ 13.9 µM) | 0.13 (≈ 0.226 µM)
